Results from patent publication US12404241B2 (Celgene Corporation, priority 2018, dated 2025).
Counter-ions that a name gives are not always drawn.

Target: T1, AR (Homo sapiens, UniProt P10275)
T1 construct: endogenous in cells; host or cells: VCaP cells
T1 sequence (P10275 1-920): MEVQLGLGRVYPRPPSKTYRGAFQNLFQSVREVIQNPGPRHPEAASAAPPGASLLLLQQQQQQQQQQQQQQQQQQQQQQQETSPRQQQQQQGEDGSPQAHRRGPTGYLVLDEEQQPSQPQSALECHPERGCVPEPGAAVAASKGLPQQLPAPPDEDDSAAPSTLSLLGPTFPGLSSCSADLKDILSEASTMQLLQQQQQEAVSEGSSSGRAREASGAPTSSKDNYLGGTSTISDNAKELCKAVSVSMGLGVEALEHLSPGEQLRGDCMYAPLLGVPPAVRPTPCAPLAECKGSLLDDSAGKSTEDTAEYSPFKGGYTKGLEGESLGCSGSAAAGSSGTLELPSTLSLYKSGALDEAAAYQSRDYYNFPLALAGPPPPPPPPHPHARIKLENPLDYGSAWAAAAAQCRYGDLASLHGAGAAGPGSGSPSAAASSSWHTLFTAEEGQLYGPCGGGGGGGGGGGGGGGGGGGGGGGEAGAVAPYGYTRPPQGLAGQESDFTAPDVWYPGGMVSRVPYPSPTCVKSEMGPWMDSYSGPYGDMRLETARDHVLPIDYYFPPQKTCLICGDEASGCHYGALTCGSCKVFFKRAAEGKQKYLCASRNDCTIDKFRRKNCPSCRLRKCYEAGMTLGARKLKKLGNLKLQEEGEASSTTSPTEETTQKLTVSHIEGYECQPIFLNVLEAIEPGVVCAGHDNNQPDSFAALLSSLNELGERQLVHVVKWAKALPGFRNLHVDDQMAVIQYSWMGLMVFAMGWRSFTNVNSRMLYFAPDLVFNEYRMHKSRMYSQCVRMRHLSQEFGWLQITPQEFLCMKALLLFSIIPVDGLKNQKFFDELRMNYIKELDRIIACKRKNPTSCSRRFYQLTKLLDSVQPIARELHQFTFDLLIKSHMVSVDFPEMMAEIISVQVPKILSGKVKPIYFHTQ
Experiment: VCAP AR Degradation Assay
Format: cell-based
Details: for Y (AR degradation efficiency, % of DMSO control): class symbols *; for DC50: class symbols A-C, read-out: DC50
Outline: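 AR protein in lysates quantified by sandwich ELISA after 24 h exposure of VCaP cells at 37 °C to 10 concentrations (1:3 steps, 5 μM top, final). Four-parameter logistic fit of percent-of-DMSO levels gave DC50 (50% degradation), EC50 and minimal AR level Y.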

| SMILES | Y (AR degradation efficiency, % of DMSO control) | DC50 |
| --- | --- | --- |
| CCc1cc(N2C(=S)N(c3ccc(C#N)c(C(F)(F)F)c3)C(=O)C23CCC3)ccc1OCCN1CCN(CC(=O)Nc2cccc(NC3CCC(=O)NC3=O)c2)CC1 (stereo not shown) [Example 132, 2-(4-(2-(4-(7-(4-cyano-3-(trifluoromethyl)phenyl)-8-oxo-6-thioxo-5,7-diazaspiro[3.4]octan-5-yl)-2-ethylphenoxy)ethyl)piperazin-1-yl)-N-(3-(2,6-dioxopiperidin-3-ylamino)phenyl)acetamide] | * (0<Y<=25%) | < 0.1 µM |
| C[C@@H]1CN(CCCc2ccc(N3C(=S)N(c4ccc(C#N)c(C(F)(F)F)c4)C(=O)C3(C)C)cc2F)C[C@H](C)N1CC(=O)Nc1cccc(NC2CCC(=O)NC2=O)c1 (stereo partly drawn) [Example 287, 2-((2R,6S)-4-(3-(4-(3-(4-cyano-3-(trifluoromethyl)phenyl)-5,5-dimethyl-4-oxo-2-thioxoimidazolidin-1-yl)-2-fluorophenyl)propyl)-2,6-dimethylpiperazin-1-yl)-N-(3-(2,6-dioxopiperidin-3-ylamino)phenyl)acetamide] | * (0<Y<=25%) | < 0.1 µM |
| CC1(C)C(=O)N(c2cnc(C#N)c(C(F)(F)F)c2)C(=S)N1c1ccc(OCCN2CCN(CC(=O)Nc3cccc(NC4CCC(=O)NC4=O)c3)CC2)c(Cl)c1 (stereo not shown) [Example 5, hydrochloride] | * (0<Y<=25%) | < 0.1 µM |
| CCc1cc(N2C(=S)N(c3ccc(C#N)c(C(F)(F)F)c3)C(=O)C2(C)C)ccc1OCCN1CCN(C2(C(=O)Nc3cccc(NC4CCC(=O)NC4=O)c3)CC2)CC1 (stereo not shown) [Example 139, 1-(4-(2-(4-(3-(4-cyano-3-(trifluoromethyl)phenyl)-5,5-dimethyl-4-oxo-2-thioxoimidazolidin-1-yl)-2-ethylphenoxy)ethyl)piperazin-1-yl)-N-(3-(2,6-dioxopiperidin-3-ylamino)phenyl)cyclopropanecarboxamide] | * (0<Y<=25%) | < 0.1 µM |
| CC(C)c1cc(N2C(=S)N(c3cnc(C#N)c(C(F)(F)F)c3)C(=O)C2(C)C)ccc1OCCN1C[C@@H](C)N(CC(=O)Nc2cccc(NC3CCC(=O)NC3=O)c2)[C@@H](C)C1 (stereo partly drawn) [Example 180, 2-((2S,6R)-4-(2-(4-(3-(6-cyano-5-(trifluoromethyl)pyridin-3-yl)-5,5-dimethyl-4-oxo-2-thioxoimidazolidin-1-yl)-2-isopropylphenoxy)ethyl)-2,6-dimethylpiperazin-1-yl)-N-(3-(2,6-dioxopiperidin-3-ylamino)phenyl)acetamide] | * (0<Y<=25%) | < 0.1 µM |
| CCCc1cc(N2C(=S)N(c3cnc(C#N)c(C(F)(F)F)c3)C(=O)C2(C)C)ccc1OCCN1CCN(CC(=O)Nc2cccc(NC3CCC(=O)NC3=O)c2)CC1 (stereo not shown) [Example 38, hydrochloride] | * (0<Y<=25%) | < 0.1 µM |
| CCc1cc(N2C(=S)N(c3ccc(C#N)c(C(F)(F)F)c3)C(=O)C2(C)C)ccc1OCCN1C[C@@H](C)N(CC(=O)Nc2cc(Cl)cc(NC3CCC(=O)NC3=O)c2)C[C@H]1C (stereo partly drawn) [Example 128, N-(3-chloro-5-(2,6-dioxopiperidin-3-ylamino)phenyl)-2-((2R,5R)-4-(2-(4-(3-(4-cyano-3-(trifluoromethyl)phenyl)-5,5-dimethyl-4-oxo-2-thioxoimidazolidin-1-yl)-2-ethylphenoxy)ethyl)-2,5-dimethylpiperazin-1-yl)acetamide] | * (0<Y<=25%) | < 0.1 µM |
| CCc1cc(N2C(=S)N(c3cnc(C#N)c(C(F)(F)F)c3)C(=O)C23CCC3)ccc1OCCN1CCN(CC(=O)Nc2cc(Cl)cc(NC3CCC(=O)NC3=O)c2)[C@H](C)C1 (stereo partly drawn) [Example 106, N-(3-chloro-5-(2,6-dioxopiperidin-3-ylamino)phenyl)-2-((R)-4-(2-(4-(7-(6-cyano-5-(trifluoromethyl)pyridin-3-yl)-8-oxo-6-thioxo-5,7-diazaspiro[3.4]octan-5-yl)-2-ethylphenoxy)ethyl)-2-methylpiperazin-1-yl)acetamide] | * (0<Y<=25%) | < 0.1 µM |
| CCc1cc(N2C(=S)N(c3ccc(C#N)c(C(F)(F)F)c3)C(=O)C2(C)C)ccc1OCCN1CCN([C@H](C)C(=O)Nc2cccc(NC3CCC(=O)NC3=O)c2)[C@H](C)C1 (stereo partly drawn) [Example 280, (2R)-2-((R)-4-(2-(4-(3-(4-cyano-3-(trifluoromethyl)phenyl)-5,5-dimethyl-4-oxo-2-thioxoimidazolidin-1-yl)-2-ethylphenoxy)ethyl)-2-methylpiperazin-1-yl)-N-(3-(2,6-dioxopiperidin-3-ylamino)phenyl)propanamide] | *** (35%<Y<50%) | 0.1 to 0.5 µM |
| CCc1cc(N2C(=S)N(c3cnc(C#N)c(C(F)(F)F)c3)C(=O)C2(C)C)ccc1OCCN1C[C@H]2CC[C@@H]1CN2CC(=O)Nc1cccc(NC2CCC(=O)NC2=O)c1 (stereo partly drawn) [Example 183, 2-((1R,4R)-5-(2-(4-(3-(6-cyano-5-(trifluoromethyl)pyridin-3-yl)-5,5-dimethyl-4-oxo-2-thioxoimidazolidin-1-yl)-2-ethylphenoxy)ethyl)-2,5-diazabicyclo[2.2.2]octan-2-yl)-N-(3-(2,6-dioxopiperidin-3-ylamino)phenyl)acetamide] | ** (25%<Y<=35%) | 0.1 to 0.5 µM |
| CC1(C)C(=O)N(c2ccc(C#N)c(C(F)(F)F)c2)C(=S)N1c1ccc(OCCN2CCN(CC(=O)Nc3cc(Cl)cc(NC4CCC(=O)NC4=O)c3)CC2)c(C2CC2)c1 (stereo not shown) [Example 30, hydrochloride] | * (0<Y<=25%) | < 0.1 µM |
| CC(C)c1cc(N2C(=S)N(c3ccc(C#N)c(C(F)(F)F)c3)C(=O)C2(C)C)ccc1OCCN1CCN(CC(=O)Nc2cccc(NC3CCC(=O)NC3=O)c2)CC1 (stereo not shown) [Example 17, hydrochloride] | * (0<Y<=25%) | < 0.1 µM |
| Cc1c(N2C(=O)C(C)(C)N(c3ccc(OCCN4CCN(CC(=O)Nc5cccc(NC6CCC(=O)NC6=O)c5)CC4)c(F)c3)C2=S)ccc(C#N)c1C(F)(F)F (stereo not shown) [Example 96, 2-(4-(2-(4-(3-(4-cyano-2-methyl-3-(trifluoromethyl)phenyl)-5,5-dimethyl-4-oxo-2-thioxoimidazolidin-1-yl)-2-fluorophenoxy)ethyl)piperazin-1-yl)-N-(3-(2,6-dioxopiperidin-3-ylamino)phenyl)acetamide] | *** (35%<Y<50%) | < 0.1 µM |
| CCc1c(OCCN2C[C@@H](C)N(CC(=O)Nc3cccc(NC4CCC(=O)NC4=O)c3)[C@@H](C)C2)ccc(N2C(=S)N(c3ccc(C#N)c(C(F)(F)F)c3)C(=O)C2(C)C)c1F (stereo partly drawn) [Example 271, 2-((2S,6R)-4-(2-(4-(3-(4-cyano-3-(trifluoromethyl)phenyl)-5,5-dimethyl-4-oxo-2-thioxoimidazolidin-1-yl)-2-ethyl-3-fluorophenoxy)ethyl)-2,6-dimethylpiperazin-1-yl)-N-(3-(2,6-dioxopiperidin-3-ylamino)phenyl)acetamide] | * (0<Y<=25%) | < 0.1 µM |
| CCc1cc(N2C(=S)N(c3ccc(C#N)c(C(F)(F)F)c3)C(=O)C2(C)C)ccc1OCCN1C[C@H](C)N(CC(=O)Nc2cccc(NC3CCC(=O)NC3=O)c2)[C@@H](C)C1 (stereo partly drawn) [Example 146, 2-((2S,6S)-4-(2-(4-(3-(4-cyano-3-(trifluoromethyl)phenyl)-5,5-dimethyl-4-oxo-2-thioxoimidazolidin-1-yl)-2-ethylphenoxy)ethyl)-2,6-dimethylpiperazin-1-yl)-N-(3-(2,6-dioxopiperidin-3-ylamino)phenyl)acetamide] | * (0<Y<=25%) | < 0.1 µM |
| CCc1cc(N2C(=S)N(c3ccc(C#N)c(C(F)(F)F)c3)C(=O)C23CCC3)ccc1OCCN1CCN(CC(=O)Nc2cccc(NC3CCC(=O)NC3=O)c2)[C@H](C)C1 (stereo partly drawn) [Example 105, 2-((R)-4-(2-(4-(7-(4-cyano-3-(trifluoromethyl)phenyl)-8-oxo-6-thioxo-5,7-diazaspiro[3.4]octan-5-yl)-2-ethylphenoxy)ethyl)-2-methylpiperazin-1-yl)-N-(3-(2,6-dioxopiperidin-3-ylamino)phenyl)acetamide] | * (0<Y<=25%) | < 0.1 µM |
| C[C@@H]1CN(CC(=O)Nc2cccc(NC3CCC(=O)NC3=O)c2)[C@H](C)CN1CCOc1ccc(N2C(=S)N(c3ccc(C#N)c(Cl)c3)C(=O)C2(C)C)cc1C1CC1 (stereo partly drawn) [Example 205, 2-((2R,5R)-4-(2-(4-(3-(3-chloro-4-cyanophenyl)-5,5-dimethyl-4-oxo-2-thioxoimidazolidin-1-yl)-2-cyclopropylphenoxy)ethyl)-2,5-dimethylpiperazin-1-yl)-N-(3-(2,6-dioxopiperidin-3-ylamino)phenyl)acetamide] | * (0<Y<=25%) | < 0.1 µM |
